Key:
[1] = Disruption of 6-his tagged KRAS G12D mutant/BRAF RBD complex (unknown origin) incubated for 3 hrs in the presence of CYPA by TR-FRET assay; parameters: species or system Homo sapiens
[2] = Disruption of 6-his tagged KRAS G12V mutant/BRAF RBD complex (unknown origin) incubated for 3 hrs in the presence of CYPA by TR-FRET assay; parameters: species or system Homo sapiens
[3] = Disruption of 6his-tagged KRAS G12C mutant/BRAF RBD complex (unknown origin) incubated for 3 hrs in the presence of CYPA by TR-FRET assay; parameters: species or system Homo sapiens
[4] = tested on: NCI-H358; test: Anticancer activity against human NCI-H358 cells harboring KRAS G12C mutant assessed as inhibition of cell viability incubated for 72 hrs by cell counting kit 8 method; assay type: functional, cell-based; settings: NCI-H358, 72 h
[5] = tested on: AGS; test: Anticancer activity against human AGS cells harboring KRAS G12D mutant assessed as inhibition of cell viability incubated for 72 hrs by cell counting kit 8 method; assay type: functional, cell-based
[6] = tested on: SW-620; test: Anticancer activity against human SW620 cells harboring KRAS G12V mutant assessed as inhibition of cell viability incubated for 72 hrs by cell counting kit 8 method; assay type: functional, cell-based; settings: SW-620, 72 h
[7] = Inhibition of ERK phosphorylation in human AGS cells harboring KRAS G12D mutant incubated for 4 hrs by absorbance based analysis; assay type: cell-based
[8] = Inhibition of ERK phosphorylation in human SW620 cells harboring KRAS G12V mutant incubated for 4 hrs by absorbance based analysis; assay type: cell-based; settings: SW-620, 4 h
[9] = Inhibition of ERK phosphorylation in human NCI-H358 cells harboring KRAS G12C mutant incubated for 4 hrs by absorbance based analysis; assay type: cell-based; settings: NCI-H358, 4 h

Structure (SMILES) | IC50 [1] | IC50 [2] | IC50 [3] | IC50 [4] | IC50 [5] | IC50 [6] | IC50 [7] | IC50 [8] | IC50 [9]
CO[C@@H](C)c1ncccc1-c1c2c3cc(cc4c3n1CCC4)-c1cc(O)cc(c1)C[C@H](NC(=O)[C@H](C(C)C)N(C)C(=O)C1(F)CCN(C(=O)[C@H](F)Cl)CC1)C(=O)N1CCC[C@H](N1)C(=O)OCC(C)(C)C2 | 1880 nM | 164 nM | 6 nM | – | – | – | – | – | –
CO[C@@H](C)c1ncc(N2CCOCC2)cc1-c1c2c3cc(cc4c3n1CC(F)(F)C4)-c1csc(n1)C[C@H](NC(=O)[C@H](C(C)C)N(C)C(=O)C1(F)CCN(C(=O)[C@H](F)Cl)CC1)C(=O)N1CCC[C@H](N1)C(=O)OCC(C)(C)C2 | – | – | – | 8 nM | 16 nM | 26 nM | – | – | –
CO[C@@H](C)c1ncccc1-c1c2c3cc(cc4c3n1CCO4)-c1cc(O)cc(c1)C[C@H](NC(=O)[C@H](C(C)C)N(C)C(=O)C1(F)CCN(C(=O)[C@H](F)Cl)CC1)C(=O)N1CCC[C@H](N1)C(=O)OCC(C)(C)C2 | 3910 nM | 445 nM | 16 nM | – | – | – | – | – | –
CO[C@@H](C)c1ncc(N2CCN(C)CC2)cc1-c1c2c3cc(cc4c3n1CCC4)-c1csc(n1)C[C@H](NC(=O)[C@H](C(C)C)N(C)C(=O)C1(F)CCN(C(=O)[C@H](F)Cl)CC1)C(=O)N1CCC[C@H](N1)C(=O)OCC(C)(C)C2 | – | – | – | 2 nM | 292 nM | 107 nM | – | – | –
CO[C@@H](C)c1ncc(N2CCOCC2)cc1-c1c2c3cc(cc4c3n1CCC4)-c1csc(n1)C[C@H](NC(=O)[C@H](C(C)C)N(C)C(=O)C1(F)CCN(C(=O)[C@H](F)Cl)CC1)C(=O)N1CCC[C@H](N1)C(=O)OCC(C)(C)C2 | – | – | – | – | – | – | > 10000 nM | 23 nM | 1 nM
CO[C@@H](C)c1ncc(N2CCN(C)CC2)cc1-c1c2c3cc(cc4c3n1CCC4)-c1csc(n1)C[C@H](NC(=O)[C@H](C(C)C)N1CCC3(CN(C(=O)[C@H](F)Cl)C3)C1=O)C(=O)N1CCC[C@H](N1)C(=O)OCC(C)(C)C2 | – | – | – | – | – | – | 62 nM | 38 nM | 19 nM

Reference: ChEMBL document CHEMBL6153168, “Novel Tricyclic KRAS Inhibitors for the Treatment of Cancer” (ACS Med Chem Lett, 2025)
